Experimental data as given in patent US20220288060A1, “Treatment of Opioid Withdrawal” (Kinoxis Therapeutics Pty Ltd, priority 2019, published 2022).
Where “and” joins values, the source holds several entries; their conditions need not be identical. Equal values may be shown once. Entries after “also recorded” stand apart in the source; their conditions may differ.

How the values were obtained:
[1] = tested on: naloxone precipitated oxycodone withdrawal in C57BL/6 mice; experiment: Naloxone precipitated oxycodone withdrawal-induced jumping, two salt forms (Example 4, Experiment 2.1); format: in vivo, mouse; conditions: 7.3 mg/kg FBE i.p.; for Oxycodone withdrawal-induced jumping vs OXY_VEH: CMPD1-PO4 p<0.01, CMPD1-2HCL p<0.001; for Withdrawal-induced jumping, comparison of the two salt forms: OXY_CMPD1-PO4 vs OXY_2 HCL p=0.901
C57BL/6 mice [2] = experiment: Open field locomotor activity test (Experiment 1.1); format: in vivo, mouse
Protocol: N=18 adult male C57BL/6 mice received either 0, 5 or 10 mg/kg CMPD1-2HCL (i.p.; n=6 per condition). Fifteen minutes after receiving their i.p. injection of CMPD1-2HCL mice were placed individually into a novel 40 (l)×40 (w)×40 (h) cm locomotor testing arena. Sessions were captured by overhead cameras and videos were analysed by using the automated behaviour tracking software CleverSys Topscan (CleverSys, Virginia, USA), which provided the distance travelled by each mouse in each 5 min time bin over the 60 minute locomotor testing session. Data were analysed by SPSS using mixed model ANOVA.

[3] = tested on: naloxone precipitated oxycodone withdrawal in C57BL/6 mice; experiment: Naloxone precipitated oxycodone withdrawal: jumping and paw tremors (Experiment 1.2); format: in vivo, mouse; conditions: for Number of jumps for each mouse in the 30 min test session / Total duration of paw tremors for each mouse in the 30 minute test session: oxycodone condition mice, individual mice
Protocol: Adult male C57BL/6 mice (N=40) were allocated to one of five conditions (n=8 per condition):
(§1) Mice in the oxycodone conditions received i.p. injections of oxycodone for 5 days according to the schedule and doses set out in Table 1. The morning and afternoon doses were separated by 7 h. Mice in the vehicle condition received injections of vehicle saline instead of oxycodone. One-hour-and-forty-five minutes after the morning injection on day 5, mice were administered their i.p. dose of CMPD1-2HCL. Fifteen minutes later they received an i.p. injection of 10 mg/kg naloxone (oxycodone groups) or saline (vehicle group), and proceeded immediately to testing.
Testing involved placing mice individually into a 20 (l)×20 (w)×30 (h) cm arena for 30 min. Sessions were captured via a side view high speed (120 fps), high resolution (4K) camera. Number of jumps and total duration of paw tremors were scored from the videos by an experienced experimenter blind to conditions.
Data were analysed by SPSS using oneway ANOVA and planned contrasts.

[4] = tested on: c-fos protein expression in the brain; experiment: Naloxone-precipitated opioid withdrawal-induced c-fos protein expression in the brain (Example 2); format: in vivo, mouse; conditions: 10 mg/kg i.p.; 8 brain regions; 75 minutes after naloxone
Protocol: In this example, the ability of Compound 1 to inhibit naloxone-precipitated opioid withdrawal-induced c-fos protein expression in the brain was studied. C-fos is a protein marker of neural activation. Compound 1 was administered in dihydrochloride salt form (CMPD1-2HCL).
N=40 male C57BL/6 mice were assigned to one of the following four conditions:
Mice in the oxycodone (OXY) conditions received i.p. injections of oxycodone for 9 days with increasing doses of 9, 17.8, 23.7 and 33 mg/kg (twice daily on days 1-8, with dose increasing every other day). The morning and afternoon doses were separated by 7 h. Mice in the vehicle condition (VEH) received injections of vehicle saline instead of oxycodone. One-hour-and-forty-five minutes after the morning injection on day 9, mice were administered their i.p. dose of CMPD1-2HCL (10 mg/kg at an injection volume of […]) or VEH. Fifteen minutes later they received an i.p. injection of 10 mg/kg naloxone (OXY groups) or saline (VEH groups) to precipitate withdrawal.
75 minutes after their naloxone or saline injection, mice were euthanised by sodium pentobarbitone overdose, and intracardiac puncture perfusion fixation was performed with 4% paraformaldehyde, and brains were then collected for immunohistochemical processing.
Data were analysed by SPSS using two-way ANOVA and planned contrasts.

[5] = tested on: naloxone precipitated oxycodone withdrawal in C57BL/6 mice; experiment: Gastrointestinal symptoms of opioid withdrawal: fecal boli and diarrhea (Example 3); format: in vivo, mouse; conditions: 10 mg/kg i.p.
Protocol: In this example, the ability of CMPD1-2HCL to inhibit the gastrointestinal symptoms of opioid withdrawal was assessed using a murine model.
Adult male C57BL/6 mice ([…]) were allocated to one of four conditions (n=10 per condition):
as §1, with “conditions (OXY)” for “conditions”, “7.” for “1.”, “CMPD1-2HCL (10 mg/kg).” for “CMPD1-2HCL.”
Testing involved placing mice individually into a 20 (l)×20 (w)×30 (h) cm arena for 30 min. The number of fecal boli were counted at the end of the session and whether or not the mouse had diarrhea.
Data were analysed using ANOVA and planned contrasts for fecal boli and Fisher's exact test for diarrhea.

C57BL/6 mice [6] = experiment: Open field locomotor activity test (Experiment 1.1); format: in vivo, mouse; conditions: 5 mg/kg i.p.; time post dose 75-80; individual mice 7-12
[7] = clinical trials; cited from earlier work

Cn1ncc2c1Nc1ccccc1NC2.O=P(O)(O)O [CMPD1-PO4]
Oxycodone withdrawal-induced jumping vs OXY_VEH [1]: significantly inhibited | Withdrawal-induced jumping, comparison of the two salt forms [1]: did not differ significantly

Cl.Cl.Cn1ncc2c1Nc1ccccc1NC2 [CMPD1-2HCL]
Oxycodone withdrawal-induced jumping vs OXY_VEH [1]: significantly inhibited | Withdrawal-induced jumping, comparison of the two salt forms [1]: did not differ significantly | Distance travelled during time bin (C57BL/6 mice [2]; 5 mg/kg i.p., time post dose 15-20 (5 min bin), individual mice 7-12): 15043.46 mm and 20271.67 mm and 23636.81 mm and 18238.34 mm and 16051.42 mm and 16442.58 mm | Distance travelled during time bin (C57BL/6 mice [2]; 5 mg/kg i.p., time post dose 20-25, individual mice 7-12): 20386.17 mm and 13996.02 mm and 16449.1 mm and 11919.46 mm and 11756.3 mm and 10974.55 mm | Distance travelled during time bin (C57BL/6 mice [2]; 5 mg/kg i.p., time post dose 25-30, individual mice 7-12): 11089.15 mm and 11425.88 mm and 11764.23 mm and 8462.92 mm and 10127.95 mm and 8553.13 mm | Distance travelled during time bin (C57BL/6 mice [2]; 5 mg/kg i.p., time post dose 30-35, individual mice 7-12): 13221.16 mm and 7779.42 mm and 11134.18 mm and 8664.63 mm and 9823.55 mm and 4905.54 mm | Distance travelled during time bin (C57BL/6 mice [2]; 5 mg/kg i.p., time post dose 35-40, individual mice 7-12): 15282.34 mm and 6791.58 mm and 8208.55 mm and 11776.57 mm and 10597.55 mm and 5280.25 mm | Distance travelled during time bin (C57BL/6 mice [2]; 5 mg/kg i.p., time post dose 40-45, individual mice 7-12): 7068.09 mm and 9050.59 mm and 7493.64 mm and 9121.74 mm and 5308.25 mm and 6050.2 mm | Distance travelled during time bin (C57BL/6 mice [2]; 5 mg/kg i.p., time post dose 45-50, individual mice 7-12): 5367.28 mm and 6712.87 mm and 5587.1 mm and 5518.04 mm and 9993.79 mm and 5466.54 mm | Distance travelled during time bin (C57BL/6 mice [2]; 5 mg/kg i.p., time post dose 50-55, individual mice 7-12): 945.3 mm and 7073.77 mm and 10568.53 mm and 9463.89 mm and 5234.55 mm and 6665.74 mm | Distance travelled during time bin (C57BL/6 mice [2]; 5 mg/kg i.p., time post dose 55-60, individual mice 7-12): 3362.81 mm and 8088.81 mm and 11051.63 mm and 11843.34 mm and 6386.55 mm and 4645.85 mm | Distance travelled during time bin (C57BL/6 mice [2]; 5 mg/kg i.p., time post dose 60-65, individual mice 7-12): 6133.83 mm and 10365.45 mm and 10059.86 mm and 11154.54 mm and 8969.03 mm and 4893.44 mm | Distance travelled during time bin (C57BL/6 mice [2]; 5 mg/kg i.p., time post dose 65-70, individual mice 7-12): 5268.88 mm and 4809.55 mm and 6121.25 mm and 4100.88 mm and 9397.98 mm and 4757.22 mm | Effect on locomotor activity (distance travelled) (C57BL/6 mice [2]; 5 and 10 mg/kg i.p., main effect of dose p=0.392, time by dose interaction p=0.143): does not significantly impact locomotor activity; also recorded: does not supress locomotor activity | Distance travelled during time bin (C57BL/6 mice [2]; Table 3, 5 mg/kg, i.p., time post dose 35-40, individual mice 13-18): 11756.13 mm and 8046.38 mm (2×) and 12860.87 mm and 13271.28 mm and 10054.85 mm | Distance travelled during time bin (C57BL/6 mice [2]; Table 3, 5 mg/kg, i.p., time post dose 40-45, individual mice 13-18): 7682.41 mm and 2222.65 mm (2×) and 11152.11 mm and 12391.75 mm and 4683.51 mm | Distance travelled during time bin (C57BL/6 mice [2]; Table 3, 5 mg/kg, i.p., time post dose 45-50, individual mice 13-18): 11290.93 mm and 6482.48 mm (2×) and 10743.61 mm and 12658.5 mm and 8082.58 mm | Distance travelled during time bin (C57BL/6 mice [2]; Table 3, 5 mg/kg, i.p., time post dose 55-60, individual mice 13-18): 28970.94 mm and 12316.3 mm (2×) and 32680.43 mm and 27725.23 mm and 19894.04 mm | Distance travelled during time bin (C57BL/6 mice [2]; Table 3, 5 mg/kg, i.p., time post dose 60-65, individual mice 13-18): 17509.3 mm and 10864.14 mm (2×) and 28788.31 mm | Jumping relative to mice not undergoing oxycodone withdrawal (VEH 0CMPD1) ([3]; 2.5, 5, 10 mg/kg i.p., p<0.001, p<0.001, p=0.011): still showed elevated jumping | Oxycodone withdrawal-induced jumping vs OXCD 0CMPD1 ([3]; 2.5, 5, 10 mg/kg i.p., p=0.023, p=0.018, p<0.001): significantly inhibited | Dysphoric and somatic symptoms (jumping and paw tremors) of oxycodone withdrawal ([3]; 2.5-10 mg/kg i.p., conclusion): dose dependently inhibited | Paw tremors relative to mice not undergoing oxycodone withdrawal (VEH 0CMPD1) ([3]; 5 and 10 mg/kg i.p., p=0.204, p=0.4 (2.5 mg/kg p<0.01)): no longer had significantly elevated paw tremors | Oxycodone withdrawal-induced paw tremors vs OXCD 0CMPD1 ([3]; highest dose 10 mg/kg i.p., p=0.033 (2.5 mg/kg p=0.898; 5 mg/kg p=0.083)): significantly inhibited | Number of jumps for each mouse in the 30 min test session ([3]; 2.5 mg/kg i.p., 2.5 mg/kg): 86 and 52 and 58 and 50 (2×) and 31 and 92 and 68 | Total duration of paw tremors for each mouse in the 30 minute test session ([3]; 2.5 mg/kg i.p., 2.5 mg/kg): 12.4 s and 2.3 s and 78.4 s and 48 s and 27.1 s and 20.4 s and 0.2 s and 0.4 s | Number of jumps for each mouse in the 30 min test session ([3]; 5 mg/kg i.p., 5 mg/kg): 51 and 35 and 61 and 48 (2×) and 30 and 136 and 67 | Total duration of paw tremors for each mouse in the 30 minute test session ([3]; 5 mg/kg i.p., 5 mg/kg): 8.2 seconds and 21.4 seconds and 3 seconds (2×) and 18.5 seconds and 2.1 seconds and 3.2 seconds and 17 seconds | Number of jumps for each mouse in the 30 min test session ([3]; 10 mg/kg i.p., 10 mg/kg): 25 and 120 and 17 and 33 (2×) and 26 and 51 and 34 | Total duration of paw tremors for each mouse in the 30 minute test session ([3]; 10 mg/kg i.p., 10 mg/kg): 9.9 seconds and 0 seconds (3×) and 6 seconds and 21.5 seconds and 3.3 seconds and 9.6 seconds | Withdrawal induced neural activation (c-fos positive cells) [4]: significantly inhibited withdrawal induced neural activation | Number of mice suffering from diarrhea ([5]; Fisher's exact test): inhibited | Amount of fecal boli produced during the 30 min session ([5]; p<0.001 vs opioid withdrawal): significantly inhibited | Proportion of mice suffering from diarrhea ([5]; OXY condition, n=10, OXY, VEH 90%, VEH, VEH 0%): 30% | Distance travelled during time bin (C57BL/6 mice [6]): 3441.42 mm and 8422.46 mm and 11136.92 mm and 9156.71 mm and 2402.89 mm and 1364.63 mm

CC(Oc1c(Cl)cccc1Cl)C1=NCCN1 (stereo not drawn) [lofexidine]
Improvements in acute opioid withdrawal symptoms and treatment retention [7]: only modest improvements | Side effects [7]: hypotension, bradycardia and insomnia
